Data: PMC7589200, “Identification of Putative Non-Substrate-Based XT-I Inhibitors by Natural Product Library Screening” (Biomolecules, 2020)
Where “and” joins values, the source holds several entries; their conditions need not be identical. Identical values can stand only once.

Key:
XT-I = target: T1, XT-I (Homo sapiens, UniProt Q86Y38); test: Cellular (extra- and intracellular) XT-I activity of NHDFs by UPLC-ESI-MS/MS XT-I assay; type: cell-based; conditions: for extracellular XT-I activity relative to DMSO control / intracellular XT activity compared to DMSO control: then inhibitor-free media 48 h (96 h)
T1 sequence (Q86Y38 260-959 limits assumed): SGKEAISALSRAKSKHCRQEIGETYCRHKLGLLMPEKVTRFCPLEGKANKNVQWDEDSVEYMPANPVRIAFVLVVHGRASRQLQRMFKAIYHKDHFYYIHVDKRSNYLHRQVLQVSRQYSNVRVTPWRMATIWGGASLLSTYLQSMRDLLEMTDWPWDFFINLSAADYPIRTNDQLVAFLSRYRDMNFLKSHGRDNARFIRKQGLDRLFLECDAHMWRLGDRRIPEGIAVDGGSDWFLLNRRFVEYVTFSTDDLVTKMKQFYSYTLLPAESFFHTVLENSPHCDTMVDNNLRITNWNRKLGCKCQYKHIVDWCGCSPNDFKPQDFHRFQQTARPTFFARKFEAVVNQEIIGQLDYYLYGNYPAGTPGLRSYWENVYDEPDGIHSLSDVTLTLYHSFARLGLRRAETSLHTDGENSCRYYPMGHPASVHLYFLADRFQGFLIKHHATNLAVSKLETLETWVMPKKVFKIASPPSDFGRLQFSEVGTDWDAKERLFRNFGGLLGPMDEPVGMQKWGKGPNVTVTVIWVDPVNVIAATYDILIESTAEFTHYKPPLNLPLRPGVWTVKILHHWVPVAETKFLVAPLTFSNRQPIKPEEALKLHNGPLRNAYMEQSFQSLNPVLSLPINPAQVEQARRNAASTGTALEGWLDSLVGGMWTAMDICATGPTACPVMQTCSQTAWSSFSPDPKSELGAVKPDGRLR
From the text: The measurement of relative XT-I activity among different samples is based on the XT-catalyzed incorporation of xylose from UDP-D-xylose on a modified bikunin-derived peptide after a fixed reaction time. The assay was originally developed for the determination of XT activity in human- or cell-culture-derived samples [13] by ultra-performance liquid chromatography/electrospray ionization tandem mass spectrometry (UPLC/ESI-MS/MS). The UPLC/ESI-MS/MS XT assay was recently modified toward a XT-I selective activity determination in human serum and cell culture samples (unpublished data). The relative intensities of the xylosylated peptide species abundance obtained with the respective m/z ratio were directly proportional to the relative XT-I activity of the sample. The XT-I activity determined is expressed in arbitrary units and normalized to the total protein content per 1 mL sample volume in cell culture approaches. A calibrator probe with a fixed amount of recombinant XT-I enzyme was included in every UPLC-MS/MS XT-I assay for assay comparability across multiple runs. The assay reaction mixture (50 μL) contained 50% (v/v) of the respective XT-I enzyme solution and 50% (v/v) reaction buffer. The final XT-I assay contained 25 mM MES buffer (pH 6.5), 25 mM KF buffer, 5 mM MnCl2, 5 mM MgCl2, 7.0 μM modified acceptor peptide and 30 μM UDP-D-xylose. The sample preparation for UPLC/ESI-MS/MS was performed according to [13]. In brief, after sample incubation at 37 °C for 24 h, the reaction was stopped by heating at 99 °C for 10 min. After centrifugation (10,000× g, 10 min) the supernatant was diluted fivefold with UPLC water for analysis. All cell-based XT-I assays were carried out in three biological and three technical replicates per donor-derived primary cell culture, while the XT-I activity determination for screening or kinetic purposes was carried out at least in technical duplicates.
(§1) A former established cell culture model was utilized to investigate the effect of putative XT-I inhibitors on NHDFs. The inhibition studies were carried out with final inhibitor concentrations of 0.5, 1.0, 2.0 or 4.0 μM diluted in fully supplemented DMEM. In brief, unless otherwise stated, NHDFs were cultivated with a low density of 50 cells per mm^2 on a hard tissue culture substrate (100 × 20 mm dish) in fully supplemented DMEM with or without additional TGF-β1 (5 μg/L) for 24 h, promoting their transdifferentiation into proto-myofibroblasts. Thereafter, cells were treated with celastrol or amphotericin B in the presence or absence of TGF-β1 (5 μg/L) for an additional 48 h. Negative controls treated with solvent only were included for every sampling time. The final DMSO content of 0.04% (v/v) was kept constant in all inhibition experiments.
The cell culture supernatant was collected to analyze the extracellular XT-I activity, whereas the same cell culture monolayer was lysed using a fixed amount of 0.75 mL Nonidet P-40 (NP-40)-buffer (50 mM TRIS, 150 mM NaCl, 1% NP-40, pH 7.8) for the analysis of intracellular XT-I activities. After sample centrifugation (10,000× g, 10 min, 4 °C), the supernatant contained the intracellular XT-I protein. The lysates were also used for the BCA assay. The cellular XT-I activities were measured 48 h after inhibitor treatment (48 h) or an additional 48 h after inhibitor removal (96 h).

XYLT2 mRNA expression = XYLT2 mRNA expression in NHDFs by qRT-PCR; type: cell-based, human; conditions: 48 h
Description: as §1
(§2) The RNA extraction from cell lysates and cDNA synthesis for mRNA and miRNA expression analysis were performed as described previously.
Quantitative real-time polymerase chain reaction (qRT-PCR) analysis using a LightCycler 480 Instrument II system (Roche, Basel, Swiss) was performed as previously described. The qRT-PCR experiments were conducted with three biological and three technical replicates per donor-derived primary cell culture, unless otherwise stated. The intron-spanning primer sequences used are listed in [7] and Table 1. The geometric mean of the expression levels of the housekeeping genes SDHA, RPL13A and B2M were calculated for expression normalization. The relative target gene mRNA expressions were determined by the ΔΔCT method considering the PCR efficiency. All normalized gene expression levels shown were referred to the respective target gene expression of one primary cell culture sample for the relative comparison of multiple biological samples per experiment and figures.

COL1A1 mRNA expression = COL1A1 mRNA expression in NHDFs by qRT-PCR; type: cell-based, human; conditions: 48 h
Description: as §1, §2
(§3) Quantitative real-time polymerase chain reaction (qRT-PCR) analysis using a LightCycler 480 Instrument II system (Roche, Basel, Swiss) was performed as previously described. […] The geometric mean of the expression levels of the housekeeping genes SDHA, RPL13A and B2M were calculated for expression normalization. The relative target gene mRNA expressions were determined by the ΔΔCT method considering the PCR efficiency. […]

TGFB1 mRNA expression = TGFB1 mRNA expression in NHDFs by qRT-PCR; type: cell-based, human; conditions: 2 μM in the presence of TGF-β1 (5 μg/L), 48 h
Description: as §1, §2, §3

fibroblasts = conditions: in vitro, osteoblasts and fibroblasts; cited from earlier work
SMAD7 mRNA expression = SMAD7 mRNA expression in NHDFs by qRT-PCR; type: cell-based, human; conditions: 2 μM in the presence of TGF-β1 (5 μg/L), 48 h
Description: as §1, with “experiments. […]” for “experiments.”
as §3

[1] = 1.0 μM with TGF-β1 (5 μg/L) 48 h
[2] = 2.0 μM with TGF-β1 (5 μg/L) 48 h

CC1=C(O)C(=O)C=C2C1=CC=C1[C@@]2(C)CC[C@@]2(C)[C@@H]3C[C@](C)(C(=O)O)CC[C@]3(C)CC[C@]12C [Compound 68, Celastrol]
extracellular XT-I activity relative to untreated cells (XT-I; 0.5 μM, 48 h, inhibitor still present in supernatant (Figure S3)): 0.8 ± 0.07 fold
extracellular XT-I activity relative to DMSO control (XT-I; [1]): 0.9 ± 0.06 fold
intracellular XT activity compared to DMSO control (XT-I; [1]): did not result in any detectable changes
intracellular XT activity (XT-I; inhibitor present 48 h (Figure S3 setup, 0.5 μM)): No intracellular XT activity changes were observed
XYLT2 mRNA expression level (XYLT2 mRNA expression; 1.0 μM in the presence of TGF-β1 (5 μg/L)): did not alter

C[C@@H]1[C@H](O)[C@@H](C)/C=C/C=C/C=C/C=C/C=C/C=C/C=C/[C@H](O[C@@H]2O[C@H](C)[C@@H](O)[C@H](N)[C@@H]2O)C[C@@H]2O[C@](O)(C[C@@H](O)C[C@@H](O)[C@H](O)CC[C@@H](O)C[C@@H](O)CC(=O)O[C@H]1C)C[C@H](O)[C@H]2C(=O)O [Compound 17, Amphotericin B]
extracellular XT-I activity relative to DMSO control (XT-I; [2]): 0.6 ± 0.03 fold
intracellular XT activity compared to DMSO control (XT-I; [2]): did not result in any detectable changes
TGF-β1-mediated COL1A1 mRNA expression relative to TGF-β1 only (COL1A1 mRNA expression; 2.0 μM with TGF-β1 (5 μg/L)): 0.8 ± 0.06 fold
COL1A1 mRNA expression compared to controls treated with DMSO (COL1A1 mRNA expression; amphotericin B treatment, not statistically significant (p = 0.2)): 0.7 ± 0.1 fold
XYLT2 mRNA expression level (XYLT2 mRNA expression; 2.0 μM with TGF-β1 (5 μg/L), versus TGF-β1 only): did not differ
TGFB1 mRNA expression relative to TGF-β1 only (TGFB1 mRNA expression): 0.8 ± 0.04 fold
concentration causing sublethal cytotoxicity (fibroblasts): 5000 ng/mL and 10000 ng/mL
concentration lethal to fibroblasts (fibroblasts): 100000 ng/mL
SMAD7 mRNA expression relative to TGF-β1 only (SMAD7 mRNA expression): 1.3 ± 0.1 fold
